# Assays:
# [1] = Liver exposure; type: in vivo, cynomolgus monkey; settings: for liver concentration, RIF vs vehicle, at 1 h: 1 h post IV infusion; for increase of liver concentration with RIF at 6 h: average, RIF vs vehicle, N = 2 per time point
# [2] = Monkey PBPK model fitting of plasma and liver concentrations; design: species or system cynomolgus monkey; settings: for reduction of active uptake clearance with rifampin inhibition (modeled): PBPK model, RIF vs vehicle; for Kp: plasma and liver
# [3] = cited from earlier work
# [4] = system: suspension monkey hepatocytes; assay: In vitro hepatic uptake clearance in suspension monkey hepatocytes; type: in vitro ADME, cynomolgus monkey; settings: 37°C
# [5] = Plasma pharmacokinetics after single IV cassette infusion; type: in vivo, cynomolgus monkey
# [6] = Urinary excretion in monkeys; type: in vivo; settings: in-house bile duct cannulation (BDC) monkey study (data not shown)
# [7] = clinical trial; cited from earlier work
# [8] = Pharmacokinetics of rifampin after oral administration; type: in vivo; settings: male, cynomolgus monkey, plasma, 20 mg/kg
# [9] = monkeys; cited from earlier work
# [10] = humans; cited from earlier work
# [11] = system: OATP1B1; settings: read-out: Ki against OATP1B1; cited from earlier work
# [12] = system: OAT2; settings: read-out: IC50 for OAT2; cited from earlier work
# [13] = system: OATP1B3; settings: read-out: Ki against OATP1B3; cited from earlier work
# [14] = PBPK fitted, rifampin, estimate (%CV)
# [15] = PBPK fitted, vehicle, estimate (%CV)
# [16] = cynomolgus monkey, intravenous, 0.5 mg/kg, Kp,rest, PBPK fitted, vehicle, estimate (%CV)
# [17] = cynomolgus monkey, intravenous, 0.5 mg/kg, Kp,scalar, PBPK fitted, vehicle, estimate (%CV)
# [18] = RIF 20 mg/kg orally vs vehicle, monkeys
# [19] = rifampin, fixed to the value estimated without rifampin
compound,measurement,setting,value
Nc1c(CC(=O)O)cccc1C(=O)c1ccc(Br)cc1 [Bromfenac],"liver concentrations, vehicle vs RIF pretreated groups, at 1, 2.5, and 6 h",[1],overlapped
same,"CL,u,int,passive",[2]; [14],11.2 (95.3%) ml/min/kg
same,"CLu,int,active",[2]; [14],820 (10.8%) ml/min/kg
same,"CLu,int,meta",[2]; [14],84.8 (3.8%) ml/min/kg
same,"CL,u,int,passive",[2]; [15],13.1 (96.2%) ml/min/kg
same,"CLu,int,active",[2]; [15],2300 (18.7%) ml/min/kg
same,"CLu,int,meta",[2]; [15],49.7 (16.9%) ml/min/kg
same,reduction of active uptake clearance with rifampin inhibition (modeled),[2],64%
same,Kp,[2]; [16],0.8
same,Kp,[2]; [17],0.5
same,"bromfenac glucuronide excreted in urine, % of the administered dose",[3]; healthy subjects,82.5%
same,hepatocyte uptake in the presence of 200 µM of rifamycin SV,[4],partially inhibit
same,decrease of systemic CL in the presence of RIF,[5]; [18],2.1 fold
same,increase of plasma exposure (AUClast) with RIF compared to the vehicle group,[5]; [18],2.1 fold
CC1=C(CCC(=O)O)c2cc3nc(cc4[nH]c(cc5[nH]c(cc1n2)c(C)c5CCC(=O)O)c(CCC(=O)O)c4C)C(CCC(=O)O)=C3C [CP‐III],"liver concentration, RIF vs vehicle, at 1 h",[1],minimally changed
same,increase of liver concentration with RIF at 6 h,[1],3.7 fold
same,increase of plasma exposure (AUClast) with RIF compared to the vehicle group,[5]; [18],8.8 fold
CN(C)c1ccc2c(c1)c(=O)n(-c1ccc(C[C@H](NC(=O)c3c(Cl)cccc3Cl)C(=O)O)cc1)c(=O)n2C [Carotegrast],"liver concentration, RIF vs vehicle, at 1 h",[1],comparable
same,"liver concentrations, RIF-treated vs vehicle group, at 2.5 h and 6 h",[1]; 2.5 h and 6 h,higher
same,"average Kp,liver (liver to plasma ratio)","[1]; without RIF (reduced by RIF treatment), Figure S3",~17
same,"CL,u,int,passive",[2]; [14],2.9 (32.4%) ml/min/kg
same,"CLu,int,active",[2]; [14],95.2 (4.4%) ml/min/kg
same,"CLu,int,bile",[2]; [14],11.7 (0.1%) ml/min/kg
same,"CL,u,int,passive",[2]; [15],4.1(11.8%) ml/min/kg
same,"CLu,int,active",[2]; [15],1154.1 (5.2%) ml/min/kg
same,"CLu,int,bile",[2]; [15],16.3 (0.022%) ml/min/kg
same,"Kp,rest",[2]; [15],0.85 (6.1%)
same,"Kp,scalar",[2]; [15],0.16 (29.4%)
same,"Kp,rest",[2]; [19],0.85 (fixed)
same,"Kp,scalar",[2]; [19],0.16 (fixed)
same,"Urinary excretion, % of total dose",[6],7.5%
same,hepatocyte uptake in the presence of 200 µM of rifamycin SV,[4],greatly inhibited
same,decrease of systemic CL in the presence of RIF,[5]; [18],about 10 fold
same,increase of Cmax with RIF,[5]; [18],4.8 fold
same,increase of plasma exposure (AUClast) with RIF compared to the vehicle group,[5]; [18],9.1 fold
same,volume of distribution (V),[5]; in the presence of RIF,0.05 L/kg
same,volume of distribution (V),[5]; vehicle group (without RIF),0.11 L/kg
COc1ccccc1[C@H](Cn1c(=O)n(C(C)(C)C(=O)O)c(=O)c2c(C)c(-c3ncco3)sc21)OC1CCOCC1 [GS‐0976],pharmacodynamic (PD) effect with potent OATP inhibitor,[7],not altered
same,plasma concentration with potent OATP inhibitor,[7],increased significantly
"CO[C@H]1/C=C/O[C@@]2(C)Oc3c(C)c(O)c4c(O)c(c(/C=N/N5CCN(C)CC5)c(O)c4c3C2=O)NC(=O)/C(C)=C\C=C\[C@H](C)[C@H](O)[C@@H](C)[C@@H](O)[C@@H](C)[C@H](OC(C)=O)[C@@H]1C [RIF, rifampin]",concentration at 3.25 h,[8]; oral,20.8 µM
same,concentration at 6 h,[8]; oral,> 10 µM
same,Tmax,[8]; po,3.5 to 4.5 h
CC(C)c1nc(N(C)S(C)(=O)=O)nc(-c2ccc(F)cc2)c1/C=C/[C@@H](O)C[C@@H](O)CC(=O)O [Rosuvastatin],"liver concentrations, vehicle vs RIF pretreated groups, at 1, 2.5, and 6 h",[1],overlapped
same,"CL,u,int,passive",[2]; [14],0.5 (41%) ml/min/kg
same,"CLu,int,active",[2]; [14],81.7 (8.5%) ml/min/kg
same,"CLu,int,bile",[2]; [14],2.6 (19.7%) ml/min/kg
same,"CL,u,int,passive",[2]; [15],1.0 (22.5%) ml/min/kg
same,"CLu,int,active",[2]; [15],331.8 (13.8%) ml/min/kg
same,"CLu,int,bile",[2]; [15],2.8 (1.7%) ml/min/kg
same,reduction of active uptake clearance with rifampin inhibition (modeled),[2],75%
same,Kp,[2]; [16],2.7
same,Kp,[2]; [17],1.1
same,CL renal,"[2]; cynomolgus monkey, plasma, intravenous, 0.5 mg/kg",4.4 mL/min/kg
same,fraction cleared through renal excretion,[3]; humans,less than 10%
same,hepatocyte uptake in the presence of 200 µM of rifamycin SV,[4],greatly inhibited
same,"Urinary excretion, % of the absorbed dose",[9],~ 20%
same,decrease of systemic CL in the presence of RIF,[5]; [18],2.2 fold
same,increase of plasma exposure (AUClast) with RIF compared to the vehicle group,[5]; [18],2.3 fold
O=C(O)C[C@H](O)C[C@H](O)/C=C/c1c(C2CC2)nc2ccccc2c1-c1ccc(F)cc1 [pitavastatin],increase of systemic exposure when co-administered orally with rifampin,[10],5.7 fold
CO[C@H]1/C=C/O[C@@]2(C)Oc3c(C)c(O)c4c(O)c(cc(O)c4c3C2=O)NC(=O)/C(C)=C\C=C\[C@H](C)[C@H](O)[C@@H](C)[C@@H](O)[C@@H](C)[C@H](OC(C)=O)[C@@H]1C [rifamycin SV],Ki,[11],2 µM
same,IC50,[12],~200 µM
same,Ki,[13],3 µM
coproporphyrin I [CP‐I],"liver concentration, RIF vs vehicle, at 1 h",[1],minimally changed
same,increase of liver concentration with RIF at 6 h,[1],3.2 fold
same,increase of plasma exposure (AUClast) with RIF compared to the vehicle group,[5]; [18],5.4 fold

# From paper PMC8504809 (Clinical and Translational Science, 2021)
